# From patent US8889667B2 (Agios Pharmaceuticals, Inc, priority 2010, dated 2014)
# Target: PKM2 (Homo sapiens, UniProt P14618)
# Assay: PKM2 Assay (activation, LDH-coupled, absorbance at 340 nm)
# Format: biochemical
# Settings: Table 4
# Procedure, shortened: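 Human PKM2 (50 ng/well) was preincubated with compound and coupling mix for 30 min at 4 °C without ADP. Reactions were then started with ADP (0.7 mM) alongside PEP 0.15 mM, NADH 180 μM and LDH, in Tris pH 7.5/KCl/MgCl2/DTT/BSA buffer. A340 was followed at 25 °C and activation reported as AC50.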
# PKM2, sequence (P14618 whole entry): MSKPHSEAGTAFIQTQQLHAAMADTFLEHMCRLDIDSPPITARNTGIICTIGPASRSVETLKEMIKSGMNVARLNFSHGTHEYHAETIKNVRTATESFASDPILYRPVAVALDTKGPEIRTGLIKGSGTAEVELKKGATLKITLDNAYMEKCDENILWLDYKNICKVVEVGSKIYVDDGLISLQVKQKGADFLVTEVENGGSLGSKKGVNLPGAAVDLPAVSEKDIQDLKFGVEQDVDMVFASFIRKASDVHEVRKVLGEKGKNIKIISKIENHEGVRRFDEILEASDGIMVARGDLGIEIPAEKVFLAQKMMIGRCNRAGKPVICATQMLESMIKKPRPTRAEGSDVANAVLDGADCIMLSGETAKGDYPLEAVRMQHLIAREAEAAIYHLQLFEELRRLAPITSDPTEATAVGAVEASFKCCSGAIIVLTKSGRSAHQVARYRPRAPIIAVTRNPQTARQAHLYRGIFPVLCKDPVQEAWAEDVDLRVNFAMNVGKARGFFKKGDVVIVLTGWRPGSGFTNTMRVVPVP
row,AC50 [nM],Molecule
1,100 to 500,"N-(4-(3,5-dimethylpiperazine-1-carbonyl)phenyl)quinoline-8-sulfonamide [Compound 104]"

# Same assay, conditions: Table 5
row,AC50 [nM],Molecule
1,< 100,"O=C(c1ccc(NS(=O)(=O)c2cccc3cccnc23)cc1F)N1CCN(CC2CCOCC2)CC1 [Compound 436, N-(3-fluoro-4-(4-((tetrahydro-2H-pyran-4-yl)methyl)piperazine-1-carbonyl)phenyl)quinoline-8-sulfonamide]"
2,< 100,"O=C(c1ccc(NS(=O)(=O)c2cccc3cccnc23)cc1F)N1CCN(CC2CCCO2)CC1 (stereo not drawn) [Compound 437, N-(3-fluoro-4-(4-((tetrahydrofuran-2-yl)methyl)piperazine-1-carbonyl)phenyl)quinoline-8-sulfonamide]"
3,< 100,"CC(C)(C1CC1)N1CCN(C(=O)c2ccc(NS(=O)(=O)c3cccc4cccnc34)cc2)CC1 [Compound 438, N-(4-(4-(2-cyclopropylpropan-2-yl)piperazine-1-carbonyl)phenyl)quinoline-8-sulfonamide]"
4,100 to 500,"O=C(c1ccc(NS(=O)(=O)c2cccc3cccnc23)cc1Cl)N1CCN(CC2CCCCO2)CC1 (stereo not drawn) [Compound 439, N-(3-chloro-4-(4-((tetrahydro-2H-pyran-2-yl)methyl)piperazine-1-carbonyl)phenyl)quinoline-8-sulfonamide]"
5,100 to 500,"O=C(c1ccc(NS(=O)(=O)c2cccc3cccnc23)cc1Cl)N1CCN(CC2CCOCC2)CC1 [Compound 440, N-(3-chloro-4-(4-((tetrahydro-2H-pyran-4-yl)methyl)piperazine-1-carbonyl)phenyl)quinoline-8-sulfonamide]"
6,1000 to 20000,"O=C(c1ccc(NS(=O)(=O)c2cccc3cccnc23)cc1Cl)N1CCN(CC2CCCO2)CC1 (stereo not drawn) [Compound 441, N-(3-chloro-4-(4-((tetrahydrofuran-2-yl)methyl)piperazine-1-carbonyl)phenyl)quinoline-8-sulfonamide]"
7,< 100,"CC(C1CC1)N1CCN(C(=O)c2ccc(NS(=O)(=O)c3cccc4cccnc34)cc2)CC1 (stereo not drawn) [Compound 442, N-(4-(4-(1-cyclopropylethyl)piperazine-1-carbonyl)phenyl)quinoline-8-sulfonamide]"
8,500 to 1000,"O=C(c1ccc(NS(=O)(=O)c2cccc3cccnc23)cc1)N1CCN(C(=O)C2CCCO2)CC1 (stereo not drawn) [Compound 443, N-(4-(4-(tetrahydrofuran-2-carbonyl)piperazine-1-carbonyl)phenyl)quinoline-8-sulfonamide]"
9,< 100,"O=C(c1ccc(NS(=O)(=O)c2cccc3cccnc23)cc1)N1CCN(C[C@H]2CCOC2)CC1 [Compound 444, (R)— and (S)—N-(4-(4-((tetrahydrofuran-3-yl)methyl)piperazine-1-carbonyl)phenyl)quinoline-8-sulfonamide]"
10,< 100,"O=C(c1ccc(NS(=O)(=O)c2cccc3cccnc23)cc1)N1CCN(C[C@@H]2CCOC2)CC1 [Compound 445, (R)— and (S)—N-(4-(4-((tetrahydrofuran-3-yl)methyl)piperazine-1-carbonyl)phenyl)quinoline-8-sulfonamide]"
11,1000 to 20000,"CCOC(=O)N1CCN(C(=O)c2ccc(NS(=O)(=O)c3cccc4cccnc34)nc2)CC1 [Compound 446, Ethyl 4-(6-(quinoline-8-sulfonamido)nicotinoyl)piperazine-1-carboxylate]"
12,1000 to 20000,"CCOC(=O)N1CCN(C(=O)c2ccc(NS(=O)(=O)c3cccc4cccnc34)cn2)CC1 [Compound 447, Ethyl 4-(5-(quinoline-8-sulfonamido)picolinoyl)piperazine-1-carboxylate]"
13,< 100,"[2H]C(c1ccc(F)cc1)N1CCN(C(=O)c2ccc(NS(=O)(=O)c3cccc4cccnc34)cc2)CC1 (stereo not drawn) [Compound 448, N-(4-(4-(4-fluorobenzyl)piperazine-1-carbonyl)phenyl)quinoline-8-sulfonamide-(D)]"
14,< 100,"[2H]C([2H])(c1cc(F)cc(F)c1)N1CCN(C(=O)c2ccc(NS(=O)(=O)c3cccc4cccnc34)cc2)CC1 [Compound 449, N-(4-(4-(3,5-difluorobenzyl)piperazine-1-carbonyl)phenyl)quinoline-8-sulfonamide-(D2)]"
15,< 100,"[2H]C(c1cc(F)cc(F)c1)N1CCN(C(=O)c2ccc(NS(=O)(=O)c3cccc4cccnc34)cc2)CC1 (stereo not drawn) [Compound 450, N-(4-(4-(3,5-difluorobenzyl)piperazine-1-carbonyl)phenyl)quinoline-8-sulfonamide-(D)]"
16,> 20000,"O=C(c1cnc(NS(=O)(=O)c2cccc3cccnc23)cn1)N1CCN(CC2CC2)CC1 [Compound 451, N-(5-(4-(cyclopropylmethyl)piperazine-1-carbonyl)pyrazin-2-yl)quinoline-8-sulfonamide]"
17,1000 to 20000,"O=C(c1cnc(NS(=O)(=O)c2cccc3cccnc23)cn1)N1CCN(Cc2ccc(F)cc2)CC1 [Compound 452, N-(5-(4-(4-fluorobenzyl)piperazine-1-carbonyl)pyrazin-2-yl)quinoline-8-sulfonamide]"
